In PubChem BioAssay AID2060614 (Molecular Pharmacology Branch, DTP, NCI, 2025):
Several values for one entry are separate records, joined by “and”; a condition that tells them apart may be missing. Identical values can stand only once.

System: 598228-144-R-J1-PDC complex spheroids, viability
Test: Anticancer human tumor 598228-144-R-J1-PDC patient-derived serous endometrial adenocarcinoma cell line growth inhibition [CLK]
Conditions: for viability, T/C: stronger effect = lower value
Summary of the method: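 Multi-cell-type spheroids combined patient-derived tumor cells with HUVEC endothelial cells and human mesenchymal stem cells. Paired agents were dosed in half-log steps down from about clinical Cmax, or from 10 microM where Cmax was unknown.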

[1] = curve of first compound, second compound 0.0316 µM
[2] = curve of first compound, second compound 0.1 µM
[3] = curve of first compound, second compound 0.316 µM
[4] = curve of first compound, second compound 1 µM
[5] = curve of first compound, second compound 3.16 µM
[6] = curve of first compound, second compound 10 µM
[7] = second compound 0.0316 µM, first compound 0.0316 µM
[8] = second compound 0.0316 µM, first compound 0.1 µM
[9] = second compound 0.0316 µM, first compound 0.316 µM
[10] = second compound 0.0316 µM, first compound 1 µM
[11] = second compound 0.0316 µM, first compound 3.16 µM
[12] = second compound 0.0316 µM, first compound 10 µM
[13] = second compound 0.1 µM, first compound 0.0316 µM
[14] = second compound 0.1 µM, first compound 0.1 µM
[15] = second compound 0.1 µM, first compound 0.316 µM
[16] = second compound 0.1 µM, first compound 1 µM
[17] = second compound 0.1 µM, first compound 3.16 µM
[18] = second compound 0.1 µM, first compound 10 µM
[19] = second compound 0.316 µM, first compound 0.0316 µM
[20] = second compound 0.316 µM, first compound 0.1 µM
[21] = second compound 0.316 µM, first compound 0.316 µM
[22] = second compound 0.316 µM, first compound 1 µM
[23] = second compound 0.316 µM, first compound 3.16 µM
[24] = second compound 0.316 µM, first compound 10 µM
[25] = second compound 1 µM, first compound 0.0316 µM
[26] = second compound 1 µM, first compound 0.1 µM
[27] = second compound 1 µM, first compound 0.316 µM
[28] = second compound 1 µM, first compound 1 µM
[29] = second compound 1 µM, first compound 3.16 µM
[30] = second compound 1 µM, first compound 10 µM
[31] = second compound 3.16 µM, first compound 0.0316 µM
[32] = second compound 3.16 µM, first compound 0.1 µM
[33] = second compound 3.16 µM, first compound 0.316 µM
[34] = second compound 3.16 µM, first compound 1 µM
[35] = second compound 3.16 µM, first compound 3.16 µM
[36] = second compound 3.16 µM, first compound 10 µM
[37] = second compound 10 µM, first compound 0.0316 µM
[38] = second compound 10 µM, first compound 0.1 µM
[39] = second compound 10 µM, first compound 0.316 µM
[40] = second compound 10 µM, first compound 1 µM
[41] = second compound 10 µM, first compound 3.16 µM
[42] = second compound 10 µM, first compound 10 µM
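Further: spheroids exposed to compounds for seven days before readout.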
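Wherever viability, T/C is given: 100% = DMSO vehicle control wells.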

## C=C(F)C(=O)N1CCN(c2nc(OCC3CCCN3C)nc3c2CCN(c2cccc4cccc(Cl)c24)C3)CC1CC#N (configuration not stated) + CN1CCN(c2cc(C(=O)Nc3cc4cc(-c5cnn(C)c5)ccc4cn3)ccn2)CC1
[1]
  IC50: 5380 nM
[2]
  IC50: 5530 nM
[3]
  IC50: < 31.6 nM
[4]
  IC50: < 31.6 nM
[5]
  IC50: < 31.6 nM
[6]
  IC50: < 31.6 nM
[7]
  viability, T/C: 120%
[8]
  viability, T/C: 116%
[9]
  viability, T/C: 123%
[10]
  viability, T/C: 122%
[11]
  viability, T/C: 91.6%
[12]
  viability, T/C: 1.53%
[13]
  viability, T/C: 131%
[14]
  viability, T/C: 123%
[15]
  viability, T/C: 116%
[16]
  viability, T/C: 135%
[17]
  viability, T/C: 95.7%
[18]
  viability, T/C: 1.5%
[19]
  viability, T/C: 17.1%
[20]
  viability, T/C: 20%
[21]
  viability, T/C: 17.4%
[22]
  viability, T/C: 18.9%
[23]
  viability, T/C: 11.9%
[24]
  viability, T/C: 0.14%
[25]
  viability, T/C: 2.31%
[26]
  viability, T/C: 2.11%
[27]
  viability, T/C: 1.77%
[28]
  viability, T/C: 1.1%
[29]
  viability, T/C: 1.88%
[30]
  viability, T/C: 0.11%
[31]
  viability, T/C: 1.76%
[32]
  viability, T/C: 3.04%
[33]
  viability, T/C: 1.61%
[34]
  viability, T/C: 2.21%
[35]
  viability, T/C: 2.11%
[36]
  viability, T/C: 0.17%
[37]
  viability, T/C: 1.18%
[38]
  viability, T/C: 1.1%
[39]
  viability, T/C: 3.38%
[40]
  viability, T/C: 0.85%
[41]
  viability, T/C: 1.73%
[42]
  viability, T/C: 3.8%

## COc1ccc([C@@H](O)c2cc(-c3ncnc4cc(N5CCOCC5)ccc34)c(F)cc2Cl)nn1
Compound 0.0316 µM
  viability, T/C: 96.2% and 103%
Compound 0.1 µM
  viability, T/C: 93.5% and 88.3%
Compound 0.316 µM
  viability, T/C: 83.5% and 94.8%
Compound 1 µM
  viability, T/C: 63.7% and 76.9%
Compound 3.16 µM
  viability, T/C: 54.9% and 55.7%
Compound 10 µM
  viability, T/C: 34.8% and 31.7%
Curve of compound
  IC50: 3550 nM and 4190 nM

## COc1ccc([C@@H](O)c2cc(-c3ncnc4cc(N5CCOCC5)ccc34)c(F)cc2Cl)nn1 + CNC(=O)c1ccc(Nc2nc(OC3CCCC3)c3c(-c4ccc5nc(C)oc5c4)c[nH]c3n2)c(OC)c1
[1]
  IC50: 6490 nM
[2]
  IC50: 5470 nM
[3]
  IC50: 4050 nM
[4]
  IC50: 3670 nM
[5]
  IC50: 3710 nM
[6]
  IC50: 2270 nM
[7]
  viability, T/C: 120%
[8]
  viability, T/C: 109%
[9]
  viability, T/C: 99%
[10]
  viability, T/C: 94.9%
[11]
  viability, T/C: 61.8%
[12]
  viability, T/C: 41.3%
[13]
  viability, T/C: 116%
[14]
  viability, T/C: 109%
[15]
  viability, T/C: 87.7%
[16]
  viability, T/C: 90.1%
[17]
  viability, T/C: 67.5%
[18]
  viability, T/C: 32.1%
[19]
  viability, T/C: 99.4%
[20]
  viability, T/C: 102%
[21]
  viability, T/C: 75.5%
[22]
  viability, T/C: 84.6%
[23]
  viability, T/C: 51.9%
[24]
  viability, T/C: 29.7%
[25]
  viability, T/C: 95.2%
[26]
  viability, T/C: 102%
[27]
  viability, T/C: 77%
[28]
  viability, T/C: 78.3%
[29]
  viability, T/C: 52.5%
[30]
  viability, T/C: 25.3%
[31]
  viability, T/C: 94.3%
[32]
  viability, T/C: 74.7%
[33]
  viability, T/C: 90%
[34]
  viability, T/C: 75.1%
[35]
  viability, T/C: 53.9%
[36]
  viability, T/C: 27.4%
[37]
  viability, T/C: 88.9%
[38]
  viability, T/C: 90.9%
[39]
  viability, T/C: 81.7%
[40]
  viability, T/C: 77.5%
[41]
  viability, T/C: 38.9%
[42]
  viability, T/C: 28.9%

## COc1cccc2c1C(=O)c1c(O)c3c(c(O)c1C2=O)CC(O)(C(=O)CO)CC3OC1CC(N)C(O)C(C)O1 (configuration not stated) + CN1CCN(c2cc(C(=O)Nc3cc4cc(-c5cnn(C)c5)ccc4cn3)ccn2)CC1
[1]
  IC50: 263 nM
[2]
  IC50: 224 nM
[3]
  IC50: < 31.6 nM
[4]
  IC50: < 31.6 nM
[5]
  IC50: < 31.6 nM
[6]
  IC50: < 31.6 nM
[7]
  viability, T/C: 114%
[8]
  viability, T/C: 116%
[9]
  viability, T/C: 37.5%
[10]
  viability, T/C: 7.36%
[11]
  viability, T/C: 0.34%
[12]
  viability, T/C: 0.49%
[13]
  viability, T/C: 150%
[14]
  viability, T/C: 109%
[15]
  viability, T/C: 24.6%
[16]
  viability, T/C: 3.45%
[17]
  viability, T/C: 0.34%
[18]
  viability, T/C: 1.62%
[19]
  viability, T/C: 14.6%
[20]
  viability, T/C: 14.6%
[21]
  viability, T/C: 3.54%
[22]
  viability, T/C: 0.66%
[23]
  viability, T/C: 0.34%
[24]
  viability, T/C: 2.75%
[25]
  viability, T/C: 1.14%
[26]
  viability, T/C: 0.59%
[27]
  viability, T/C: 1%
[28]
  viability, T/C: 0.68%
[29]
  viability, T/C: 0.96%
[30]
  viability, T/C: 2.88%
[31]
  viability, T/C: 1.47%
[32]
  viability, T/C: 3.06%
[33]
  viability, T/C: 0.97%
[34]
  viability, T/C: 0.79%
[35]
  viability, T/C: 1.31%
[36]
  viability, T/C: 4.32%
[37]
  viability, T/C: 0.73%
[38]
  viability, T/C: 0.59%
[39]
  viability, T/C: 3.86%
[40]
  viability, T/C: 0.35%
[41]
  viability, T/C: 0.23%
[42]
  viability, T/C: 3.87%

## CC1COCCN1c1cc(C2(S(C)(=N)=O)CC2)nc(-c2ccnc3[nH]ccc23)n1 (configuration not stated) + CN1CCN(c2cc(C(=O)Nc3cc4cc(-c5cnn(C)c5)ccc4cn3)ccn2)CC1
[1]
  IC50: 6130 nM
[2]
  IC50: 3010 nM
[3]
  IC50: < 31.6 nM
[4]
  IC50: < 31.6 nM
[5]
  IC50: < 31.6 nM
[6]
  IC50: < 31.6 nM
[7]
  viability, T/C: 126%
[8]
  viability, T/C: 125%
[9]
  viability, T/C: 105%
[10]
  viability, T/C: 102%
[11]
  viability, T/C: 63.5%
[12]
  viability, T/C: 38.3%
[13]
  viability, T/C: 127%
[14]
  viability, T/C: 122%
[15]
  viability, T/C: 110%
[16]
  viability, T/C: 89.1%
[17]
  viability, T/C: 46%
[18]
  viability, T/C: 28.6%
[19]
  viability, T/C: 17.1%
[20]
  viability, T/C: 16.4%
[21]
  viability, T/C: 17.9%
[22]
  viability, T/C: 14.8%
[23]
  viability, T/C: 16.3%
[24]
  viability, T/C: 13.3%
[25]
  viability, T/C: 1.37%
[26]
  viability, T/C: 1.72%
[27]
  viability, T/C: 2.93%
[28]
  viability, T/C: 1.07%
[29]
  viability, T/C: 2.89%
[30]
  viability, T/C: 7.44%
[31]
  viability, T/C: 1.86%
[32]
  viability, T/C: 3.02%
[33]
  viability, T/C: 2%
[34]
  viability, T/C: 1.65%
[35]
  viability, T/C: 3.13%
[36]
  viability, T/C: 7.42%
[37]
  viability, T/C: 1.07%
[38]
  viability, T/C: 1.83%
[39]
  viability, T/C: 2.32%
[40]
  viability, T/C: 0.91%
[41]
  viability, T/C: 2.14%
[42]
  viability, T/C: 3.43%

## COC1C=CCC(C)C(C)S(=O)(=O)NC(=O)c2ccc3c(c2)N(CC2CCC21)CC1(CCCc2cc(Cl)ccc21)CO3 (configuration not stated) + CNC(=O)c1ccc(Nc2nc(OC3CCCC3)c3c(-c4ccc5nc(C)oc5c4)c[nH]c3n2)c(OC)c1
[1]
  IC50: 3220 nM
[2]
  IC50: 2590 nM
[3]
  IC50: 1130 nM
[4]
  IC50: 2720 nM
[5]
  IC50: 2010 nM
[6]
  IC50: 2810 nM
[7]
  viability, T/C: 111%
[8]
  viability, T/C: 108%
[9]
  viability, T/C: 81.7%
[10]
  viability, T/C: 69.3%
[11]
  viability, T/C: 54.9%
[12]
  viability, T/C: 25.3%
[13]
  viability, T/C: 105%
[14]
  viability, T/C: 96.9%
[15]
  viability, T/C: 61.7%
[16]
  viability, T/C: 70.6%
[17]
  viability, T/C: 59.6%
[18]
  viability, T/C: 22.9%
[19]
  viability, T/C: 102%
[20]
  viability, T/C: 91.1%
[21]
  viability, T/C: 60.5%
[22]
  viability, T/C: 53.9%
[23]
  viability, T/C: 42.5%
[24]
  viability, T/C: 31.5%
[25]
  viability, T/C: 99%
[26]
  viability, T/C: 82.8%
[27]
  viability, T/C: 65.9%
[28]
  viability, T/C: 57.8%
[29]
  viability, T/C: 55.5%
[30]
  viability, T/C: 37.2%
[31]
  viability, T/C: 92.4%
[32]
  viability, T/C: 78.8%
[33]
  viability, T/C: 67.3%
[34]
  viability, T/C: 54.9%
[35]
  viability, T/C: 55.3%
[36]
  viability, T/C: 25.1%
[37]
  viability, T/C: 86.5%
[38]
  viability, T/C: 83.8%
[39]
  viability, T/C: 67.2%
[40]
  viability, T/C: 51.9%
[41]
  viability, T/C: 58.3%
[42]
  viability, T/C: 35.4%
